Experimental data as given in US7399775B2, “β-amyloid protein production/secretion inhibitor” (Daiichi Pharmaceutical Co., Ltd., priority 2001, dated 2008).

SMILES	melting point
COc1cccc(C(CCCCS(C)(=O)=O)S(=O)(=O)c2ccc(Cl)cc2)c1 (centres unmarked) [Example 83, 1-[1-(4-Chlorophenylsulfonyl)-5-(methylsulfonyl)pentyl]-3-methoxybenzene]	91 to 93 °C
CS(=O)(=O)CCCCC(C1CCCCC1)S(=O)(=O)c1ccc(Cl)cc1 (centres unmarked) [Example 95, 1-Chloro-4-[1-cyclohexyl-5-(methylsulfonyl)pentylsulfonyl]benzene]	104 to 106 °C
CS(=O)(=O)CCCCC(Cc1ccccc1)S(=O)(=O)c1ccc(Cl)cc1 (centres unmarked) [Example 97, 4-[1-Benzyl-5-(methylsulfonyl)pentylsulfonyl]-1-chlorobenzene]	68 to 70 °C
CS(=O)(=O)CCCCC(c1cnccc1Cl)S(=O)(=O)c1ccc(Cl)cc1 (centres unmarked) [Example 105, 4-Chloro-3-[1-[(4-chlorophenyl)sulfonyl]-5-(methylsulfonyl)pentyl]pyridine]	156 to 157 °C
CS(=O)(=O)CCCCC(c1cncs1)S(=O)(=O)c1ccc(Cl)cc1 (centres unmarked) [Example 114, 5-[1-[(4-Chlorophenyl)sulfonyl]-5-(methylsulfonyl)pentyl]thiazole]	95 to 96 °C
CS(=O)(=O)CCCCC(c1nccs1)S(=O)(=O)c1ccc(Cl)cc1 (centres unmarked) [Example 116, 2-[1-[(4-Chlorophenyl)sulfonyl]-5-(methylsulfonyl)pentyl]thiazole]	118 to 119 °C
CS(=O)(=O)CCCCC(c1cnco1)S(=O)(=O)c1ccc(Cl)cc1 (centres unmarked) [Example 118, 5-[1-(4-Chlorophenylsulfonyl)-5-(methylsulfonyl)pentyl]oxazole]	164 to 166 °C
CCCCC(c1ccncc1)S(=O)(=O)c1ccc(Cl)cc1 (centres unmarked) [Example 120, 4-[1-(4-Chlorophenylsulfonyl)pentyl]pyridine]	109 to 111 °C
O=S(=O)(c1ccc(Cl)cc1)C(c1ccncc1)C1CCCC1 (centres unmarked) [Example 121, 4-[(4-Chlorophenylsulfonyl)(cyclopentyl)methyl]pyridine]	133 to 135 °C
CN1CCC(C(c2ccncc2)S(=O)(=O)c2ccc(Cl)cc2)CC1 (centres unmarked) [Example 124, 4-[(4-Chlorophenylsulfonyl)(1-methylpiperidin-4-yl)methyl]pyridine]	176 to 177 °C
CN(C)CCC(c1ccncc1)S(=O)(=O)c1ccc(Cl)cc1 (centres unmarked) [Example 126, 3-(4-Chlorophenylsulfonyl)-N,N-dimethyl-3-(pyridin-4-yl)propylamine]	91 to 92 °C
O=S(=O)(c1ccc(Cl)cc1)C(c1ccccn1)c1cc(F)ccc1F (centres unmarked) [Example 135, 2-[[(4-Chlorophenyl)sulfonyl]-(2,5-difluorophenyl)methyl]pyridine]	171 to 172 °C
Cc1ccc(C(c2cc(F)ccc2F)S(=O)(=O)c2ccc(Cl)cc2)nc1 (centres unmarked) [Example 137, 2-[[(4-Chlorophenyl)sulfonyl]-(2,5-difluorophenyl)methyl]-5-methylpyridine]	159 to 160 °C
Cc1ccnc(C(c2cc(F)ccc2F)S(=O)(=O)c2ccc(Cl)cc2)c1 (centres unmarked) [Example 138, 2-[[(4-Chlorophenyl)sulfonyl]-(2,5-difluorophenyl)methyl]-4-methylpyridine]	116 to 117 °C
C=CCOc1cccnc1C(c1cc(F)ccc1F)S(=O)(=O)c1ccc(Cl)cc1 (centres unmarked) [Example 140, 3-Allyloxy-2-[[(4-chlorophenyl)sulfonyl]-(2,5-difluorophenyl)methyl]pyridine]	119 to 120 °C
O=S(=O)(c1ccc(Cl)cc1)C(c1nccs1)c1cc(F)ccc1F (centres unmarked) [Example 152, 2-[[(4-Chlorophenyl)sulfonyl]-(2,5-difluorophenyl)methyl]thiazole]	163 to 164 °C
O=C(O)CCC(c1cc(F)ccc1F)S(=O)(=O)c1ccc(Cl)cc1 (centres unmarked) [Example 200, 4-[(4-Chlorophenyl)sulfonyl]-4-(2,5-difluorophenyl)butyric Acid]	157 to 158 °C
O=C(O)CCCC(c1cc(F)ccc1F)S(=O)(=O)c1ccc(Cl)cc1 (centres unmarked) [Example 202, 5-[(4-chlorophenyl)sulfonyl]-5-(2,5-difluorophenyl)-1-valeric Acid]	151 to 152 °C
O=C(CCCC(c1cc(F)ccc1F)S(=O)(=O)c1ccc(Cl)cc1)N1CCCC1 (centres unmarked) [Example 203, 5-[(4-Chlorophenyl)sulfonyl]-5-(2,5-difluorophenyl)-1-(1-pyrrolildinyl)-1-pentanone]	125 to 126 °C
O=C(O)CCCCCC(c1cc(F)ccc1F)S(=O)(=O)c1ccc(Cl)cc1 (centres unmarked) [Example 205, 7-[(4-Chlorophenyl)sulfonyl]-7-(2,5-difluorophenyl)heptanoic Acid]	72 to 76 °C
O=S(=O)(c1ccc(Cl)cc1)C(CCO)c1cc(F)ccc1F (centres unmarked) [Example 207, 3-[(4-Chlorophenyl)sulfonyl]-3-(2,5-difluorophenyl)-1-propanol]	147 to 149 °C
O=C(OCCC(c1cc(F)ccc1F)S(=O)(=O)c1ccc(Cl)cc1)N1CCCC1 (centres unmarked) [Example 208, 3-[(4-Chlorophenyl)sulfonyl]-3-(2,5-difluorophenyl)propyl=1-pyrrolidinecarboxylate]	109 to 110 °C
O=C(OCCC(c1cc(F)ccc1F)S(=O)(=O)c1ccc(Cl)cc1)N1CCN(c2ccccc2)CC1 (centres unmarked) [Example 212, 3-[(4-Chlorophenyl)sulfonyl]-3-(2,5-difluorophenyl)propyl=4-phenyl1-piperazinecarboxylate]	127 to 129 °C
NC(=O)OCCC(c1cc(F)ccc1F)S(=O)(=O)c1ccc(Cl)cc1 (centres unmarked) [Example 214, 3-[(4-Chlorophenyl)sulfonyl]-3-(2,5-difluorophenyl)propyl=carbamate]	139 to 140 °C
O=S(=O)(c1ccc(Cl)cc1)C(Cc1ccccc1)c1cc(F)ccc1F (centres unmarked) [Example 217, 2-[1-[(4-Chlorophenyl)sulfonyl]-2-phenylethyl]-1,4-difluorobenzene]	160 to 161 °C

Continued, values first:

melting point	SMILES
136 to 138 °C	COc1ccc(C(CCCCS(C)(=O)=O)S(=O)(=O)c2ccc(Cl)cc2)cc1 (centres unmarked) [Example 85, 1-[1-(4-Chlorophenylsulfonyl)-5-(methylsulfonyl)pentyl]-4-methoxybenzene]
168 to 169 °C	O=S(=O)(c1ccc(Cl)cc1)C1(c2cccnc2Cl)CCCCCC1 [Example 108, 2-Chloro-3-[1-(4-chlorophenylsulfonyl)cycloheptyl]pyridine]
129 to 131 °C	O=S(=O)(c1ccc(Cl)cc1)C1(c2cccnc2Cl)CCCCC1 [Example 109, 2-Chloro-3-[1-(4-chlorophenylsulfonyl)cyclohexyl]pyridine]
145 to 147 °C	O=S(=O)(c1ccc(Cl)cc1)C1(c2cnccc2Cl)CCCCC1 [Example 110, 4-Chloro-3-[1-(4-chlorophenylsulfonyl)cyclohexyl]pyridine]
123 to 125 °C	CS(=O)(=O)CCCCC(c1cscn1)S(=O)(=O)c1ccc(Cl)cc1 (centres unmarked) [Example 112, 4-[1-(4-Chlorophenylsulfonyl)-5-(methylsulfonyl)pentyl]thiazole]
208 to 209 °C	O=S(=O)(c1ccc(Cl)cc1)C(c1ccncc1)C1CCOCC1 (centres unmarked) [Example 122, 4-[(4-Chlorophenylsulfonyl)(tetrahydropyran-4-yl)methyl]pyridine]
78 to 80 °C	CN(C)CCCC(c1ccncc1)S(=O)(=O)c1ccc(Cl)cc1 (centres unmarked) [Example 125, 4-(4-Chlorophenylsulfonyl)-N,N-dimethyl-4-(pyridin-4-yl)butylamine]
184 to 185 °C	COc1cccnc1C(c1cc(F)ccc1F)S(=O)(=O)c1ccc(Cl)cc1 (centres unmarked) [Example 139, 2-[[(4-Chlorophenyl)sulfonyl]-(2,5-difluorophenyl)methyl]-3-methoxypyridine]
179 to 180 °C	Cn1c(Cl)cnc1C(c1cc(F)ccc1F)S(=O)(=O)c1ccc(Cl)cc1 (centres unmarked) [Example 151, 2-[[(4-Chlorophenyl)sulfonyl]-(2,5-difluorophenyl)methyl]-1-methyl-5-chloro-1H-imidazole]
150 to 151 °C	COc1ccc(-n2ccnc2C(c2cc(F)ccc2F)S(=O)(=O)c2ccc(Cl)cc2)cc1 (centres unmarked) [Example 153, 2-[[(4-Chlorophenyl)sulfonyl]-(2,5-difluorophenyl)methyl]-1-(4-methoxyphenyl)-1H-imidazole]
154 to 155 °C	O=S(=O)(c1ccc(Cl)cc1)C1(c2nnnn2Cc2ccccc2)CCCCC1 [Example 195, 1-Benzyl-5-[1-(4-chlorobenzenesulfonyl)cyclohexyl]-1H-tetrazole]
133 to 134 °C	O=S(=O)(c1ccc(Cl)cc1)C1(c2nnn(Cc3ccccc3)n2)CCCCC1 [Example 197, 2-Benzyl-5-[1-(4-chlorobenzenesulfonyl)cyclohexyl]-2H-tetrazole]
122 to 125 °C	O=C(CC(c1cc(F)ccc1F)S(=O)(=O)c1ccc(Cl)cc1)N1CCCC1 (centres unmarked) [Example 198, 3-[(4-Chlorophenyl)sulfonyl]-3-(2,5-difluorophenyl)-1-(1-pyrrolildinyl)-1-propanone]
134 to 135 °C	O=C(CCC(c1cc(F)ccc1F)S(=O)(=O)c1ccc(Cl)cc1)N1CCCC1 (centres unmarked) [Example 201, 4-[(4-Chlorophenyl)sulfonyl]-4-(2,5-difluorophenyl)-1-(1-pyrrolildinyl)-1-butanone]
135 to 136 °C	O=C(CCCCC(c1cc(F)ccc1F)S(=O)(=O)c1ccc(Cl)cc1)N1CCCC1 (centres unmarked) [Example 204]
106 °C	O=C(CCCCCC(c1cc(F)ccc1F)S(=O)(=O)c1ccc(Cl)cc1)N1CCCC1 (centres unmarked) [Example 206, 7-[(4-Chlorophenyl)sulfonyl]-7-(2,5-difluorophenyl)-1-(1-pyrrolildinyl)-1-heptanone]
140 to 141 °C	O=C(OCCC(c1cc(F)ccc1F)S(=O)(=O)c1ccc(Cl)cc1)N1CCOCC1 (centres unmarked) [Example 211, 3-[(4-Chlorophenyl)sulfonyl]-3-(2,5-difluorophenyl)propyl=4-morpholinecarboxylate]
105 to 107 °C	O=S(=O)(c1ccc(Cl)cc1)C(Cc1ccccn1)c1cc(F)ccc1F (centres unmarked) [Example 218, 2-[2-[(4-Chlorophenyl)sulfonyl]-2-(2,5-difluorophenyl)ethyl]pyridine]
162 to 163 °C	O=S(=O)(c1ccc(Cl)cc1)C(Cc1cccnc1)c1cc(F)ccc1F (centres unmarked) [Example 219, 3-[2-[(4-Chlorophenyl)sulfonyl]-2-(2,5-difluorophenyl)ethyl]pyridine]
